One test has as its system MDA-MB-468 cells. As to the kind of experiment: SRB assay, MDA-MB-468 cells. It is filed as cell-based, human. The following applies: for IC50: Homo sapiens, MDA-MB-468, 72 h after treatment, SRB, read-out: IC50 MDA-468. As to the method: Two human breast cancer cell lines, MDA-MB-231 (HTB-26) and MDA-MB-468 (HTB-132), human cervical cancer cell line HeLa (CCL-2), and MRC-5 (CCL-171) fibroblasts were purchased from the American Type Culture Collection (ATCC, Manassas, VA, USA). All cell lines were cultured in Dulbecco’s Modified Eagle’s Medium (DMEM) with 4500 mg/L glucose and L-glutamine (Capricorn Scientific, Ebsdorfergrund, Germany), supplemented with 10% foetal bovine serum (PAN-Biotech, Aidenbach, Germany), 10,000 U/mL penicillin, and 10 mg/mL streptomycin solution (Capricorn Scientific) under standard conditions at 37 °C in a humidified 5% CO2 atmosphere (ESCO, Lifesciences Group, Singapore).
Cells were seeded on a 96-well plate (Thermo Fisher Scientific, Waltham, MA, USA) at 2 × 10^3 cells per well in DMEM medium. For the analysis of the concentration- and time-dependent effect of the analysed compounds, cell monolayers were treated 24 h after seeding with concentrations 1 × 10^−6, 1 × 10^−5, and 1 × 10^−4 M for 24, 48, or 72 h. Cell viability was detected using sulforhodamine B (SRB) assay, based on the staining of cellular proteins. The assay was performed according to the procedure described by Skehan et al.. The cells were fixed with 10% trichloroacetic acid (TCA, CARLO ERBA Reagents GmbH, Emmendingen, Germany) for 1 h at 4 °C, washed with water, and stained for 15 min with 0.4% SRB (Sigma-Aldrich Chemie GmbH, Steinheim, Germany) in 1% acetic acid. The unbound SRB dye was rinsed with 1% acetic acid, while the protein-bound dye was extracted with a 10 mM Tris base (Sigma-Aldrich). The absorbance was measured at 550 nm with a reference wavelength of 690 nm in a microplate reader (Wallac, VICTOR2 1420 Multilabel counter, PerkinElmer, Turku, Finland). The results were expressed as a percentage of the control, where the cell growth of the control is set to 100%. IC50, defined as the concentration that caused a 50% loss of cell growth, was calculated by non-linear regression analysis with the ED50plus v1.0 software. The selectivity index (SI) was determined according to the following formula:(2) SI=IC50 for fibroblast cell line/IC50 for tumour cell line
The assay was performed two times in 4 replicates for every experimental group. The statistical significance of differences between treated and untreated cells was estimated by the independent Student’s t-test, with the level of significance set at p < 0.05.
A general note: The SRB assay estimates cell density from bound dye.

The target of the next test is Na^+, K^+-ATPase. Description: Na+,K+-ATPase assay (orthophosphate release). It is filed as biochemical, porcine. As to the method: Na^+, K^+-ATPase activity was assessed using a modified version of the method by Seals et al., based on measuring the change in orthophosphate concentration released during ATP hydrolysis. The incubation mixture was prepared at 50 mM TRIS-HCl (pH 7.4), containing 5 mM MgCl2, 100 mM NaCl, 20 mM KCl, 25 μL of 5mg/mL commercial enzyme solution, and 20 μL of an inhibitor solution at a certain concentration. After preincubating the mixture for 10 min at 37 °C, the reaction was initiated by adding 20 μL of 20 mM ATP. The reaction proceeded for 10 min at 37 °C before being terminated by adding 22 μL of 3 M cold perchloric acid, with the tube then placed on ice. In the blank sample, the incubation mixture contained only TRIS buffer (pH 7.4) without MgCl2, NaCl, or KCl. The reaction volume was adjusted to a final volume of 200 μL, after which 4.5 mL of water was added. Released orthophosphate was quantified using a colorimetric reaction with 200 μL of 0.2 M ammonium molybdate in 30% sulfuric acid and one drop of 2.5% SnCl2 in glycerol. Total ATPase activity was determined by measuring the absorbance of solution at 690 nm. Enzyme activity was expressed as relative enzyme activity (REA), defined as the percentage of Na^+, K^+-ATPase activity remaining in comparison to samples without inhibitor (control activity).

What is called IC50 is the concentration at which inhibition is half-maximal.

On to `O=c1c(O)c(-c2ccc(O)c(O)c2)oc2c(CN3CCc4ccccc4C3)c(O)cc(O)c12` [Compound 2a], for which, in the test with MDA-MB-468 cells, the IC50 was over 200 µM.

With `COc1cc2c(cc1OC)CN(Cc1c(O)cc(O)c3c(=O)c(O)c(-c4ccc(O)c(O)c4)oc13)CC2` [Compound 2b], the half-inhibitory concentration (IC50) stood at 0.97 µM at Na^+, K^+-ATPase (37 °C) and 109 ± 5 µM with MDA-MB-468 cells. Also, the “Percentage Inhibition Na^+, K^+-ATPase” value in the test on Na^+, K^+-ATPase (at 1 × 10^−4 M, 37 °C) stood at 100%. Further, the “fold decrease in IC50 toward Na^+, K^+-ATPase compared to bare quercetin” value in the test on Na^+, K^+-ATPase (versus quercetin) is recorded as 50 fold. Further, in the test with MDA-MB-468 cells (highest concentration, 72 h), the “highest inhibition of MDA-468 cells” value stood at 56.56%.

The values are drawn from paper PMC12068008 (International Journal of Molecular Sciences, 2024).
